Target: T1, p53 Y220C (Homo sapiens, UniProt P04637, Y220C)
T1 construct: The recombinant protein was a truncation mutant containing only amino acids 94-312 of p53; made in house; host or cells: E. coli
Assay: In vitro DNA binding activity assay (HTRF / TR-FRET): stabilization of p53 Y220C and increase of its DNA binding activity
Type: biochemical
Details: recombinant His-tagged p53 Y220C DNA binding domain (aa 94-312), biotin-labeled consensus DNA, incubated at 27° C. or 29° C. for 60 min
How it was run: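 Compounds from 4.5 mM DMSO stocks, 3-fold serial dilutions; room-temperature incubations of 15 and 20 min. SC150 = concentration raising DNA binding by 50% over no-compound control.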

T1 sequence (P04637 94-312, change not shown): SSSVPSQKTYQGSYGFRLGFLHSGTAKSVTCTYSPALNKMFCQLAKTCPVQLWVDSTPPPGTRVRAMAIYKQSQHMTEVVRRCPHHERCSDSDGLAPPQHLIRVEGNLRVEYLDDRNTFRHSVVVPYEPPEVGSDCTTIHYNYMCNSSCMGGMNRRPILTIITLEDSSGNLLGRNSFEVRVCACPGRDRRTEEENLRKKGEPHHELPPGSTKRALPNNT

SC150 (concentration of the compound required to increase the DNA binding activity by 50%) | SMILES
+ (+ = 0 μM ≤ SC150 < 0.05 μM) | CNC(=O)c1ccc(NCC#Cc2cc3c(N[C@H]4CC[C@H](N5CC6(COC6)C5)CC4)cccc3n2CC(F)(F)F)c(OC)c1 [Compound 229A, 3-methoxy-N-methyl-4-{[3-(4-{[(1R,4R)-4-{2-oxa-6-azaspiro[3.3]heptan-6-yl}cyclohexyl]amino}-1-(2,2,2-trifluoroethyl)-1H-indol-2-yl)prop-2-yn-1-yl]amino}benzamide]
+ (+ = 0 μM ≤ SC150 < 0.05 μM) | COc1cc(S(C)(=O)=O)ccc1NCC#Cc1cc2c(N[C@H]3CC[C@H](N4CCS(=O)(=O)CC4)CC3)cccc2n1CC(F)(F)F [Compound 362A, 4-[(1R,4R)-4-[(2-{3-[(4-methanesulfonyl-2-methoxyphenyl)amino]prop-1-yn-1-yl}-1-(2,2,2-trifluoroethyl)-1H-indol-4-yl)amino]cyclohexyl]-1λ^6-thiomorpholine-1,1-dione]
+ (+ = 0 μM ≤ SC150 < 0.05 μM) | COc1cc(C(=O)N2CC3(COC3)C2)ccc1NCC#Cc1cc2c(NC3CCN(C)CC3)cccc2n1CC(F)(F)F [Compound 502A, 2-{3-[(2-methoxy-4-{2-oxa-6-azaspiro[3.3]heptane-6-carbonyl}phenyl)amino]prop-1-yn-1-yl}-N-(1-methylpiperidin-4-yl)-1-(2,2,2-trifluoroethyl)-1H-indol-4-amine]
+ (+ = 0 μM ≤ SC150 < 0.05 μM) | CNC(=O)c1ccc(NCC#Cc2cc3c(N[C@H]4CC[C@@H](N(C)CCOC)CC4)cccc3n2CC(F)(F)F)c(OC)c1 [Compound 152A, 3-methoxy-N-methyl-4-{[3-(4-{[(1S,4S)-4-[(2-methoxyethyl) (methyl)amino]cyclohexyl]amino}-1-(2,2,2-trifluoroethyl)-1H-indol-2-yl)prop-2-yn-1-yl]amino}benzamide]
+ (+ = 0 μM ≤ SC150 < 0.05 μM) | CNC(=O)c1ccc(NCC#Cc2cc3c(NC4CCS(=O)(=O)CC4)cccc3n2CC(F)(F)F)c(OC)c1 [Compound 1049A, 4-[(3-{4-[(1,1-dioxo-1λ^6-thian-4-yl)amino]-1-(2,2,2-trifluoroethyl)-1H-indol-2-yl}prop-2-yn-1-yl)amino]-3-methoxy-N-methylbenzamide]
+ (+ = 0 μM ≤ SC150 < 0.05 μM) | CNC(=O)c1ccc(NCC#Cc2cc3c(N[C@H]4CC[C@H](N(C)C)CC4)cccc3n2CC(F)(F)F)c(OCCF)c1 [Compound 104A, 3-(2-fluoroethoxy)-N-methyl-4-{[3-(4-{[(1R,4R)-4-(dimethyl-amino)cyclohexyl]amino}-1-(2,2,2-trifluoro-ethyl)-1H-indol-2-yl)prop-2-yn-1-yl]amino}benzamide]
+ (+ = 0 μM ≤ SC150 < 0.05 μM) | CNC(=O)c1ccc(NCC#Cc2cc3c(N[C@H]4CC[C@H](N5CCC6(CCOC6)CC5)CC4)cccc3n2CC(F)(F)F)c(OC)c1 [Compound 409A, 3-methoxy-N-methyl-4-{[3-(4-{[(1R,4R)-4-{2-oxa-8-azaspiro[4.5]decan-8-yl}cyclohexyl]amino}-1-(2,2,2-trifluoroethyl)-1H-indol-2-yl)prop-2-yn-1-yl]amino}benzamide]
++++ (++++ = 0.2 μM ≤ SC150 < 1 μM) | COc1cc(C(N)=O)ccc1NCC#Cc1cc2c(NC(=O)N3CCN(C)CC3)cccc2n1CC(F)(F)F [Compound 9A, N-(2-{3-[(4-carbamoyl-2-methoxyphenyl)amino]prop-1-yn-1-yl}-1-(2,2,2-trifluoroethyl)-1H-indol-4-yl)-4-methylpiperazine-1-carboxamide]
+ (+ = 0 μM ≤ SC150 < 0.05 μM) | CCN1CC[C@@H](Nc2cccc3c2cc(C#CCNc2ccc(C(=O)NC)cc2OC)n3CC(F)(F)F)[C@@H](F)C1 [Compound 1074A, 4-{[3-(4-{[(3S,4R)-1-ethyl-3-fluoropiperidin-4-yl]amino}-1-(2,2,2-trifluoroethyl)-1H-indol-2-yl)prop-2-yn-1-yl]amino}-3-methoxy-N-methylbenzamide]
+ (+ = 0 μM ≤ SC150 < 0.05 μM) | COCC(O)CN1CCC(Nc2cccc3c2cc(C#CCNc2ccc(C(=O)NC(C)C)cc2OC)n3CC(F)(F)F)CC1 (centres unmarked) [Compound 633A, 4-{[3-(4-{[1-(2-hydroxy-3-methoxypropyl)piperidin-4-yl]amino}-1-(2,2,2-trifluoroethyl)-1H-indol-2-yl)prop-2-yn-1-yl]amino}-3-methoxy-N-(propan-2-yl)benzamide]

The next lines start with the molecule.

SMILES | SC150 (concentration of the compound required to increase the DNA binding activity by 50%)
COc1cc(C(=O)O)ccc1NCC#Cc1cc2c(N[C@@H]3CCN(C(C)(C)C)C[C@@H]3F)cccc2n1CC(F)(F)F [Compound 1070A, 4-{[3-(4-{[(3S,4R)-1-tert-butyl-3-fluoropiperidin-4-yl]amino}-1-(2,2,2-trifluoroethyl)-1H-indol-2-yl)prop-2-yn-1-yl]amino}-3-methoxybenzoic acid] | + (+ = 0 μM ≤ SC150 < 0.05 μM)
CN1CCC(Nc2cccc3c2cc(C#CCNc2ccc(S(C)(=O)=O)cc2OCF)n3CC(F)(F)F)CC1 [Compound 490A, 2-(3-{[2-(fluoromethoxy)-4-methanesulfonylphenyl]amino}prop-1-yn-1-yl)-N-(1-methylpiperidin-4-yl)-1-(2,2,2-trifluoroethyl)-1H-indol-4-amine] | + (+ = 0 μM ≤ SC150 < 0.05 μM)
COc1cc(S(C)(=O)=O)ccc1NCC#Cc1cc2c(N[C@H]3CC[C@H](N4CC5(CCC5)C4)CC3)cccc2n1CC(F)(F)F [Compound 194A, 2-{3-[(4-methane-sulfonyl-2-methoxy-phenyl)amino]prop-1-yn-1-yl}-N-[(1R,4R)-4-{2-azaspiro[3.3]heptan-2-yl}cyclohexyl]-1-(2,2,2-trifluoroethyl)-1H-indol-4-amine] | + (+ = 0 μM ≤ SC150 < 0.05 μM)
COc1cc(S(N)(=O)=O)ccc1NCC#Cc1cc2c(N[C@H]3CC[C@H](N4CC5(COC5)C4)CC3)cccc2n1CC(F)(F)F [Compound 205A, 3-methoxy-4-{[3-(4-{[(1S,4S)-4-{2-oxa-6-azaspiro[3.3]heptan-6-yl}cyclohexyl]amino}-1-(2,2,2-trifluoroethyl)-1H-indol-2-yl)prop-2-yn-1-yl]amino}benzene-1-sulfonamide] | + (+ = 0 μM ≤ SC150 < 0.05 μM)
COc1cc(S(N)(=O)=O)ccc1NCC#Cc1cc2c(NC3CCN(C[C@@H]4COC(=O)O4)CC3)cccc2n1CC(F)(F)F [Compound 562A, 3-methoxy-4-[(3-{4-[(1-{[(4R)-2-oxo-1,3-dioxolan-4-yl]methyl}piperidin-4-yl)amino]-1-(2,2,2-trifluoroethyl)-1H-indol-2-yl}prop-2-yn-1-yl)amino]benzene-1-sulfonamide] | + (+ = 0 μM ≤ SC150 < 0.05 μM)
COCCN(C)[C@H]1CC[C@@H](Nc2cccc3c2cc(C#CCNc2ccc(S(C)(=O)=O)cc2OCC#N)n3CC(F)(F)F)CC1 [Compound 150A] | + (+ = 0 μM ≤ SC150 < 0.05 μM)
CCOc1cc(S(C)(=O)=O)ccc1NCC#Cc1cc2c(N[C@@H]3CCNC[C@@H]3F)cccc2n1CC(F)(F)F [Compound 941A, 2-{3-[(2-ethoxy-4-methanesulfonylphenyl)amino]prop-1-yn-1-yl}-N-[(3S,4R)-3-fluoropiperidin-4-yl]-1-(2,2,2-trifluoroethyl)-1H-indol-4-amine] | + (+ = 0 μM ≤ SC150 < 0.05 μM)
COCCN(CCOC)[C@H]1CC[C@@H](Nc2cccc3c2cc(C#CCNc2ccc(S(N)(=O)=O)cc2OC)n3CC(F)(F)F)CC1 [Compound 62A, 3-methoxy-4-{[3-(4-{[(1S,4S)-4-[bis(2-methoxyethyl)amino]cyclo-hexyl]amino}-1-(2,2,2-trifluoroethyl)-1H-indol-2-yl)prop-2-yn-1-yl]amino}benzene-1-sulfonamide] | + (+ = 0 μM ≤ SC150 < 0.05 μM)
COc1cc(S(C)(=O)=O)ccc1NCC#Cc1cc2c(N[C@@H]3CC[C@H](N)C[C@H]3F)cccc2n1CC(F)(F)F [Compound 936A] | + (+ = 0 μM ≤ SC150 < 0.05 μM)
CCN1CC[C@@H](Nc2cccc3c2cc(C#CCNc2ccc(C(=O)O)cc2OC)n3CC(F)(F)F)[C@@H](F)C1 [Compound 829A, 4-{[3-(4-{[(3S,4R)-1-ethyl-3-fluoropiperidin-4-yl]amino}-1-(2,2,2-trifluoroethyl)-1H-indol-2-yl)prop-2-yn-1-yl]amino}-3-methoxybenzoic acid] | + (+ = 0 μM ≤ SC150 < 0.05 μM)
COCCN1CC[C@H](Nc2cccc3c2cc(C#CCNc2ccc(C(=O)OC)cc2OC)n3CC(F)(F)F)[C@H](F)C1 [Compound 902A] | + (+ = 0 μM ≤ SC150 < 0.05 μM)
COc1cc(S(=O)(=O)N2CCN(C)CC2)ccc1NCC#Cc1cc2c(NC3CCN(CC(O)CO)CC3)cccc2n1CC(F)(F)F (centres unmarked) [Compound 559A, 3-[4-({2-[3-({2-methoxy-4-[(4-methylpiperazin-1-yl)sulfonyl]phenyl}amino)prop-1-yn-1-yl]-1-(2,2,2-trifluoroethyl)-1H-indol-4-yl}amino)piperidin-1-yl]propane-1,2-diol] | + (+ = 0 μM ≤ SC150 < 0.05 μM)
COc1cc(C(N)=O)ccc1NCC#Cc1cc2c(N[C@H]3CC[C@H](N4CC5(CCOCC5)C4)CC3)cccc2n1CC(F)(F)F [Compound 331A, 3-methoxy-4-{[3-(4-{[(1R,4R)-4-{7-oxa-2-azaspiro[3.5]nonan-2-yl}cyclohexyl]amino}-1-(2,2,2-trifluoroethyl)-1H-indol-2-yl)prop-2-yn-1-yl]amino}benzamide] | + (+ = 0 μM ≤ SC150 < 0.05 μM)

Source: patent US12428406B2 (PMV Pharmaceuticals, Inc., priority 2019, dated 2025)
